Reference: patent publication US10485235B2, “Aryloxypyrimidinyl ethers as herbicides” (FMC Corporation, priority 2015, dated 2019)

Experiments:
Assay type in all cases: in vivo
kochia (Kochia scoparia) [1] = test: Test A preemergence, kochia; conditions: Preemergence, 0 to 100 scale (0 no effect, 100 complete control)
How it was run: (§1)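 Compounds, formulated in a surfactant-containing solvent mixture that is non-phytotoxic, are sprayed onto soil after seeding (preemergence) or onto young plants, one to two leaves and 2 to 10 cm high (postemergence). Response is scored visually after around 10 days, where 0 means no effect and 100 means complete control.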

[2] = tested on: sedge, umbrella (small-flower umbrella sedge, Cyperus difformis); test: Test B flooded paddy test, umbrella sedge; conditions: 250 g ai/ha, Flood; visual rating after 13 to 15 days; scale 0 to 100, 0 is no effect, 100 is complete control
How it was run: (§2)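 Plants grown to 2-leaf stage, pots flooded to 3 cm above soil and compound applied directly to paddy water, depth maintained throughout. After 13-15 days in greenhouse, visual rating against untreated controls on 0-100 scale (0 no effect, 100 complete control).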

[3] = tested on: ryegrass, Italian (Italian ryegrass, Lolium multiflorum); test: Test A preemergence, Italian ryegrass; conditions: Preemergence, 0 to 100 scale (0 no effect, 100 complete control)
How it was run: as §1

rice (Oryza sativa) = test: Test B flooded paddy test, rice; conditions: 250 g ai/ha, Flood; visual rating after 13 to 15 days; scale 0 to 100, 0 is no effect, 100 is complete control
How it was run: as §2

[4] = tested on: pigweed (Amaranthus retroflexus); test: Test A postemergence, pigweed; conditions: postemergence, 0 to 100 scale, 0 is no effect, 100 is complete control, approximately 10 days
How it was run: as §1

[5] = tested on: wheat (Triticum aestivum); test: Test A postemergence, wheat; conditions: postemergence, 0 to 100 scale, 0 is no effect, 100 is complete control, approximately 10 days
How it was run: as §1

kochia (Kochia scoparia) [6] = test: Test A postemergence, kochia; conditions: postemergence, 0 to 100 scale, 0 is no effect, 100 is complete control, approximately 10 days
How it was run: as §1

[7] = tested on: barnyardgrass (Echinochloa crus-galli); test: Test A postemergence, barnyardgrass; conditions: postemergence, 0 to 100 scale, 0 is no effect, 100 is complete control, approximately 10 days
How it was run: as §1

[8] = tested on: ragweed (common ragweed, Ambrosia elatior); test: Test A preemergence, ragweed; conditions: Preemergence, 0 to 100 scale (0 no effect, 100 complete control)
How it was run: as §1

[9] = tested on: ducksalad (Heteranthera limosa); test: Test B flooded paddy test, ducksalad; conditions: 250 g ai/ha, Flood; visual rating after 13 to 15 days; scale 0 to 100, 0 is no effect, 100 is complete control
How it was run: as §2

[10] = tested on: ryegrass, Italian (Italian ryegrass, Lolium multiflorum); test: Test A postemergence, Italian ryegrass; conditions: postemergence, 0 to 100 scale, 0 is no effect, 100 is complete control, approximately 10 days
How it was run: as §1

[11] = tested on: ragweed (common ragweed, Ambrosia elatior); test: Test A postemergence, ragweed; conditions: postemergence, 0 to 100 scale, 0 is no effect, 100 is complete control, approximately 10 days
How it was run: as §1

[12] = tested on: foxtail, giant (giant foxtail, Setaria faberii); test: Test A postemergence, giant foxtail; conditions: postemergence, 0 to 100 scale, 0 is no effect, 100 is complete control, approximately 10 days
How it was run: as §1

[13] = tested on: pigweed (Amaranthus retroflexus); test: Test A preemergence, pigweed; conditions: Preemergence, 0 to 100 scale (0 no effect, 100 complete control)
How it was run: as §1

[14] = tested on: galium (catchweed bedstraw, Galium aparine); test: Test A postemergence, galium; conditions: postemergence, 0 to 100 scale, 0 is no effect, 100 is complete control, approximately 10 days
How it was run: as §1

[15] = tested on: foxtail, giant (giant foxtail, Setaria faberii); test: Test A preemergence, giant foxtail; conditions: Preemergence, 0 to 100 scale (0 no effect, 100 complete control)
How it was run: as §1

[16] = tested on: barnyardgrass (Echinochloa crus-galli); test: Test B flooded paddy test, barnyardgrass; conditions: 250 g ai/ha, Flood; visual rating after 13 to 15 days; scale 0 to 100, 0 is no effect, 100 is complete control
How it was run: as §2

corn (Zea mays) = test: Test A postemergence, corn; conditions: postemergence, 0 to 100 scale, 0 is no effect, 100 is complete control, approximately 10 days
How it was run: as §1

[17] = tested on: blackgrass (Alopecurus myosuroides); test: Test A postemergence, blackgrass; conditions: postemergence, 0 to 100 scale, 0 is no effect, 100 is complete control, approximately 10 days
How it was run: as §1

[18] = tested on: barnyardgrass (Echinochloa crus-galli); test: Test A preemergence, barnyardgrass; conditions: Preemergence, 0 to 100 scale (0 no effect, 100 complete control)
How it was run: as §1

| SMILES | Plant response rating, Kochia (kochia (Kochia scoparia) [1]; 125 g ai/ha) | Plant response rating, Sedge, Umbrella [2] | Plant response rating, Ryegrass, Italian ([3]; 125 g ai/ha) | Plant response rating, Rice (rice (Oryza sativa)) | Plant response rating, Pigweed ([4]; 125 g ai/ha) | Plant response rating, Wheat ([5]; 125 g ai/ha) | Plant response rating, Kochia (kochia (Kochia scoparia) [6]; 125 g ai/ha) | Plant response rating, Barnyardgrass ([7]; 125 g ai/ha) | Plant response rating, Ragweed ([8]; 125 g ai/ha) | Plant response rating, Ducksalad [9] | Plant response rating, Ryegrass, Italian ([10]; 125 g ai/ha) | Plant response rating, Ragweed ([11]; 125 g ai/ha) | Plant response rating, Foxtail, Giant ([12]; 125 g ai/ha) | Plant response rating, Pigweed ([13]; 125 g ai/ha) | Plant response rating, Galium ([14]; 125 g ai/ha) | Plant response rating, Foxtail, Giant ([15]; 125 g ai/ha) | Plant response rating, Barnyardgrass [16] | Plant response rating, Corn (corn (Zea mays); 125 g ai/ha) | Plant response rating, Blackgrass ([17]; 125 g ai/ha) | Plant response rating, Barnyardgrass ([18]; 125 g ai/ha) | other results |
| --- | --- | --- | --- | --- | --- | --- | --- | --- | --- | --- | --- | --- | --- | --- | --- | --- | --- | --- | --- | --- | --- |
| CCCOc1c(C#N)cccc1Oc1ncc(Cl)cn1 [Compound 50] | 100 | 60 | 0 | 0 | 70 | 0 | 80 | 20 | 0 | 50 | 0 | 10 | 20 | 100 | 40 | 90 | 30 | 10 | 10 | 20 | Plant response rating, Kochia (kochia (Kochia scoparia) [1]; 31 g ai/ha): 20; Plant response rating, Ryegrass, Italian ([3]; 31 g ai/ha): 0; Plant response rating, Pigweed ([4]; 31 g ai/ha): 20; Plant response rating, Wheat ([5]; 31 g ai/ha): 0; Plant response rating, Kochia (kochia (Kochia scoparia) [6]; 31 g ai/ha): 20; Plant response rating, Barnyardgrass ([7]; 31 g ai/ha): 0; Plant response rating, Ragweed ([8]; 31 g ai/ha): 0; Plant response rating, Ryegrass, Italian ([10]; 31 g ai/ha): 0; Plant response rating, Ragweed ([11]; 31 g ai/ha): 10; Plant response rating, Foxtail, Giant ([12]; 31 g ai/ha): 0; Plant response rating, Pigweed ([13]; 31 g ai/ha): 20; Plant response rating, Galium ([14]; 31 g ai/ha): 10; Plant response rating, Foxtail, Giant ([15]; 31 g ai/ha): 10; Plant response rating, Corn (corn (Zea mays); 31 g ai/ha): 10; Plant response rating, Blackgrass ([17]; 31 g ai/ha): 0; Plant response rating, Barnyardgrass ([18]; 31 g ai/ha): 10 |
| O=C(CCC(F)(F)F)COc1c(Br)cccc1Oc1ncc(Cl)cn1 [Compound 56] | 50 | 75 | 0 | 30 | 100 | 20 | 60 | 20 | 0 | 85 | 10 | 0 | 30 | 80 | 40 | 90 | 0 | 30 | 20 | 90 | Plant response rating, Kochia (kochia (Kochia scoparia) [1]; 31 g ai/ha): 0; Plant response rating, Ryegrass, Italian ([3]; 31 g ai/ha): 0; Plant response rating, Pigweed ([4]; 31 g ai/ha): 40; Plant response rating, Wheat ([5]; 31 g ai/ha): 0; Plant response rating, Kochia (kochia (Kochia scoparia) [6]; 31 g ai/ha): 0; Plant response rating, Barnyardgrass ([7]; 31 g ai/ha): 0; Plant response rating, Ragweed ([8]; 31 g ai/ha): 0; Plant response rating, Ryegrass, Italian ([10]; 31 g ai/ha): 0; Plant response rating, Ragweed ([11]; 31 g ai/ha): 0; Plant response rating, Foxtail, Giant ([12]; 31 g ai/ha): 0; Plant response rating, Pigweed ([13]; 31 g ai/ha): 0; Plant response rating, Galium ([14]; 31 g ai/ha): 10; Plant response rating, Foxtail, Giant ([15]; 31 g ai/ha): 0; Plant response rating, Corn (corn (Zea mays); 31 g ai/ha): 10; Plant response rating, Blackgrass ([17]; 31 g ai/ha): 0; Plant response rating, Barnyardgrass ([18]; 31 g ai/ha): 0 |
| Fc1cccc(Oc2ncc(Cl)cn2)c1OC/C=C/Cl [Compound 9] | 40 | 80 | 0 | 0 | 60 | 0 | 70 | 20 | 0 | 80 | 0 | 0 | 20 | 80 | 60 | 100 | 0 | 10 | 10 | 40 | Plant response rating, Kochia (kochia (Kochia scoparia) [1]; 500 g ai/ha): 100; Plant response rating, Ryegrass, Italian ([3]; 500 g ai/ha): 20; Plant response rating, Pigweed ([4]; 500 g ai/ha): 100; Plant response rating, Wheat ([5]; 500 g ai/ha): 10; Plant response rating, Kochia (kochia (Kochia scoparia) [6]; 500 g ai/ha): 100; Plant response rating, Barnyardgrass ([7]; 500 g ai/ha): 80; Plant response rating, Ragweed ([8]; 500 g ai/ha): 0; Plant response rating, Ryegrass, Italian ([10]; 500 g ai/ha): 10; Plant response rating, Ragweed ([11]; 500 g ai/ha): 0; Plant response rating, Foxtail, Giant ([12]; 500 g ai/ha): 80; Plant response rating, Pigweed ([13]; 500 g ai/ha): 100; Plant response rating, Galium ([14]; 500 g ai/ha): 90; Plant response rating, Foxtail, Giant ([15]; 500 g ai/ha): 100; Plant response rating, Corn (corn (Zea mays); 500 g ai/ha): 30; Plant response rating, Blackgrass ([17]; 500 g ai/ha): 70; Plant response rating, Barnyardgrass ([18]; 500 g ai/ha): 100 |
